Key:
Experiment in all cases: biochemical
Design in all cases: DiscoverX kinase panel, active-site competition binding (KINOMEscan type), percent of control at one concentration
Settings in all cases: competition binding, percent of control
RET(V804L) = RET(V804L) (Homo sapiens, UniProt P07949, V804L)
Source text: (§1) To investigate the potential therapeutic benefit of inhibiting RIP1, we developed GNE684 or (S)-N-((S)-7-methoxy-1-methyl-2-oxo-2,3,4,5-tetrahydro-1H-pyrido[3,4-b]azepin-3-yl)-5-phenyl-6,7-dihydro-5H-pyrrolo[1,2-b][1,2,4]triazole-2-carboxamide with cross-species potency against RIP1, exquisite kinase selectivity, and favorable pharmacological properties (Fig. 1a–h, S1, Tables S1 and S2, SI file 1). […] (Fig. 1b, S1, and Table S1). […] GNE684 inhibited human RIP1 potently in vitro, and mouse and rat RIP1 with slightly less potency (Fig. 1d). Accordingly, it inhibited TNF-induced necroptosis in human HT-29, mouse L929, or rat H9c2 cells (Fig. 1e). The cellular potency of GNE684 was confirmed in a human whole blood assay using TBZ (TNF, IAP antagonist BV6, and pan-caspase inhibitor zVAD) or LZ (LPS plus zVAD) to trigger necroptosis and the release of IL-1α and IL-1β (Fig. 1f).

PRKR = biological target: T1, PRKR (Homo sapiens, UniProt P19525)
T1 construct: gene EIF2AK2
Source text: as §1

[1] = biological target: T2, ABL1(H396P)-nonphosphorylated (Homo sapiens, UniProt P00519, H396P)
T2 construct: nonphosphorylated
Source text: as §1

[2] = biological target: T3, ABL1(F317I)-phosphorylated (Homo sapiens, UniProt P00519, F317I)
T3 construct: phosphorylated
Source text: as §1

PKNB(M.tuberculosis) = PKNB(M.tuberculosis) (Mycobacterium tuberculosis, UniProt P9WI81)
Source text: as §1

LRRK2(G2019S) = LRRK2(G2019S) (Homo sapiens, UniProt Q5S007, G2019S)
Source text: as §1

PIM3 = PIM3 (Homo sapiens, UniProt Q86V86)
Source text: as §1

[3] = biological target: T4, ABL1(T315I)-phosphorylated (Homo sapiens, UniProt P00519, T315I)
T4 construct: phosphorylated
Source text: as §1

CAMK4 = CAMK4 (Homo sapiens, UniProt Q16566)
Source text: as §1

PCTK3 = biological target: T5, PCTK3 (Homo sapiens, UniProt Q07002)
T5 construct: gene CDK18
Source text: as §1

ULK2 = ULK2 (Homo sapiens, UniProt Q8IYT8)
Source text: as §1

PIP5K1C = PIP5K1C (Homo sapiens, UniProt O60331)
Chain of PIP5K1C (O60331 whole entry): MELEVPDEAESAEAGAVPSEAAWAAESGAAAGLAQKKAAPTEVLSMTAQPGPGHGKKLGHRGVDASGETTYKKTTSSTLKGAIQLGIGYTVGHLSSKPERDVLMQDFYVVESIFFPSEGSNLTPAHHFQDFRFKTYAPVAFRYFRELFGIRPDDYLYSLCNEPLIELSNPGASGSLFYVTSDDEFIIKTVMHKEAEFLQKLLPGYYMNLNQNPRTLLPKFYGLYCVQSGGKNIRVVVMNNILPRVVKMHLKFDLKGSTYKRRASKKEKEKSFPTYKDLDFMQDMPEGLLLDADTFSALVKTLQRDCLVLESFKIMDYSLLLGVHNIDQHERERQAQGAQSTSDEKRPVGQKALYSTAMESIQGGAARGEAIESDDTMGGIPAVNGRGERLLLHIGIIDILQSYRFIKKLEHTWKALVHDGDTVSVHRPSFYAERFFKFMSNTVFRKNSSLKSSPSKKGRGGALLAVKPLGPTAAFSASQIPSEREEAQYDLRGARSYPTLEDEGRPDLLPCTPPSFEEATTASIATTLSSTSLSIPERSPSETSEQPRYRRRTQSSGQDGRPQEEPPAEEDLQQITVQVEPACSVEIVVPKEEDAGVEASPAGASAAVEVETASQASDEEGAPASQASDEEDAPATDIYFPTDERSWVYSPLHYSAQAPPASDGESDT
Source text: as §1

PIP5K2C = biological target: T6, PIP5K2C (Homo sapiens, UniProt Q8TBX8)
T6 construct: gene PIP4K2C
Source text: as §1

FLT3(K663Q) = FLT3(K663Q) (Homo sapiens, UniProt P36888, K663Q)
Source text: as §1

CIT = CIT (Homo sapiens, UniProt O14578)
Chain of CIT (O14578 whole entry): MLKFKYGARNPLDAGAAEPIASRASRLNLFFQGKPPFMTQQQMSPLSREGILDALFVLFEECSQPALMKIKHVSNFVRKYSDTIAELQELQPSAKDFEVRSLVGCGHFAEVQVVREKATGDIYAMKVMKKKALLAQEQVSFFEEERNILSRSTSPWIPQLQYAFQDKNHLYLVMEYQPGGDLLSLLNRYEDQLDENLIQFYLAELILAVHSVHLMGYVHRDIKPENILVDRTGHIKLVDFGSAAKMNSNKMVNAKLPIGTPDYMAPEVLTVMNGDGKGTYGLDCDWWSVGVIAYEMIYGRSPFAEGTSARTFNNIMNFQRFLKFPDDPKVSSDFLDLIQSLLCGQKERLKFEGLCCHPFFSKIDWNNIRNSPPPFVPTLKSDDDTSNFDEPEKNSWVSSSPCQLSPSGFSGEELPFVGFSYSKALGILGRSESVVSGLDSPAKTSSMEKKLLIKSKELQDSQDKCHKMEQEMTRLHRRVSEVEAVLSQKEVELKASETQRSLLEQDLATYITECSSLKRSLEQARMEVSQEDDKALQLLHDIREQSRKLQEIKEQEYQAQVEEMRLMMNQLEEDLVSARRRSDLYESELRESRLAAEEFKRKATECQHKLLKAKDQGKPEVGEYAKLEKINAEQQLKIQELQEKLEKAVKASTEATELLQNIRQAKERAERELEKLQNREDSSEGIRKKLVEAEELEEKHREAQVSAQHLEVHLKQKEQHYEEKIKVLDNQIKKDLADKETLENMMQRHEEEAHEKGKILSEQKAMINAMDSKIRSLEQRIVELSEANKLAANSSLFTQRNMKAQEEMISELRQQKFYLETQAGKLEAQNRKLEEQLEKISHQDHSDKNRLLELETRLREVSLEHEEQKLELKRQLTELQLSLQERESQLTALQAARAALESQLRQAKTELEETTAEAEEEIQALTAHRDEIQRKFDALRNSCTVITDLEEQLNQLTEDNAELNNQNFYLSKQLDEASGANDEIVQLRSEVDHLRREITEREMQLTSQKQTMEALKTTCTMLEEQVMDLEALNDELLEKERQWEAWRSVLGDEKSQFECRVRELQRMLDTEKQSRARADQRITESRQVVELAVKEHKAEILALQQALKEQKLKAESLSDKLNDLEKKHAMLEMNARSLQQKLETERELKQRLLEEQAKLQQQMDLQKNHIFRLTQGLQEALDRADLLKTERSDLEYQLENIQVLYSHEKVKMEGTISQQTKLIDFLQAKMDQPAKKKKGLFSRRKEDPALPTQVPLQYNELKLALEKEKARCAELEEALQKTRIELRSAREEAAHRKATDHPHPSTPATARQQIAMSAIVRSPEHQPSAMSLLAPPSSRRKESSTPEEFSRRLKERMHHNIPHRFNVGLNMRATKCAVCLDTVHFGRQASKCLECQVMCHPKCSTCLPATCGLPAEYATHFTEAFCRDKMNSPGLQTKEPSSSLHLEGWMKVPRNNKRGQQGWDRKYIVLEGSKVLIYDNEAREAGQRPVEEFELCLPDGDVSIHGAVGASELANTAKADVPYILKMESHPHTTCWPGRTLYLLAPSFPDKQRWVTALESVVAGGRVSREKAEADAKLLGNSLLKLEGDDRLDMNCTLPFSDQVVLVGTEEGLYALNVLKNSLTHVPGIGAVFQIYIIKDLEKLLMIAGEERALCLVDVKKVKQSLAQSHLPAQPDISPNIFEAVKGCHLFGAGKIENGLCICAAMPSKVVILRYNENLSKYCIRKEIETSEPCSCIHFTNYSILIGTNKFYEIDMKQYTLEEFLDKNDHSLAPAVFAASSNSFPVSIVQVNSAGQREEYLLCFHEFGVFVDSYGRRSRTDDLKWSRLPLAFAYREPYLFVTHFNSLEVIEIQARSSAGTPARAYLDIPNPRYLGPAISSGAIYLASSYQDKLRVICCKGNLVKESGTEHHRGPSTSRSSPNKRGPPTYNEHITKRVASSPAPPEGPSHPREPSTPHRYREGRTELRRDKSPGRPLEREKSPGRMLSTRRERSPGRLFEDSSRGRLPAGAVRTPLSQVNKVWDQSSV
Source text: as §1

[4] = biological target: T7, RSK2(Kin.Dom.2-C-terminal) (Homo sapiens, UniProt P51812)
T7 construct: gene RPS6KA3; Kin.Dom.2-C-terminal
Source text: as §1

CDK5 = CDK5 (Homo sapiens, UniProt Q00535)
Chain of CDK5 (Q00535 whole entry): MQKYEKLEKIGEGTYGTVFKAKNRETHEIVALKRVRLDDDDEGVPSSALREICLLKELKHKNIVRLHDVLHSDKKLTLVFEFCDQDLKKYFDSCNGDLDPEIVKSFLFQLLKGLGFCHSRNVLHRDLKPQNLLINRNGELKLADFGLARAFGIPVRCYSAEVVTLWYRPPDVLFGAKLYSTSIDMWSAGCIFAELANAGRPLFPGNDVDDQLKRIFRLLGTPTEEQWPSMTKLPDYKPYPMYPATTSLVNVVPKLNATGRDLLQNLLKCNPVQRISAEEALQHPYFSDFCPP
Source text: as §1

ACVR1 = ACVR1 (Homo sapiens, UniProt Q04771)
Source text: as §1

CSNK2A1 = CSNK2A1 (Homo sapiens, UniProt P68400)
Chain of CSNK2A1 (P68400 whole entry): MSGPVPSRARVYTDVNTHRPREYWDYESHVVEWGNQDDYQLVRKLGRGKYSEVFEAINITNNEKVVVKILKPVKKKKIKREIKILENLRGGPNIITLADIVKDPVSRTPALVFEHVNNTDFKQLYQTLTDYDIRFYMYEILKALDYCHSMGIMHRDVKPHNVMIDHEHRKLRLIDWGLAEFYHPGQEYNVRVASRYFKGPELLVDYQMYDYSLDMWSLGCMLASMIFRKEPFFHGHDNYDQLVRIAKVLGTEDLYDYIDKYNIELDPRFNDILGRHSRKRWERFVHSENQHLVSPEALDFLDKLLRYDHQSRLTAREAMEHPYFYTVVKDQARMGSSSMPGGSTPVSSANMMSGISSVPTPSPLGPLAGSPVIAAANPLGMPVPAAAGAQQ
Source text: as §1

TSSK1B = TSSK1B (Homo sapiens, UniProt Q9BXA7)
Chain of TSSK1B (Q9BXA7 whole entry): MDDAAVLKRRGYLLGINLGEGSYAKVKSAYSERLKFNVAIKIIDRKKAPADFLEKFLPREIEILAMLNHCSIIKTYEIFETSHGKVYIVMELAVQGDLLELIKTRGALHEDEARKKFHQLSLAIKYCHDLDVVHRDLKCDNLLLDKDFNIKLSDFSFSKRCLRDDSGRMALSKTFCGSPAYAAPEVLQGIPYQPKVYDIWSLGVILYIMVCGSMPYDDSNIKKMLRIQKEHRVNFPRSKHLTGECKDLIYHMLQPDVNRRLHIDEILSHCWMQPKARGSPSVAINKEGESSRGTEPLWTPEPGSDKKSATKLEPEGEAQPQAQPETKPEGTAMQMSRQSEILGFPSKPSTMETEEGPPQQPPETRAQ
Source text: as §1

KIT(A829P) = KIT(A829P) (Homo sapiens, UniProt P10721, A829P)
Chain of KIT(A829P) (P10721 whole entry A829P): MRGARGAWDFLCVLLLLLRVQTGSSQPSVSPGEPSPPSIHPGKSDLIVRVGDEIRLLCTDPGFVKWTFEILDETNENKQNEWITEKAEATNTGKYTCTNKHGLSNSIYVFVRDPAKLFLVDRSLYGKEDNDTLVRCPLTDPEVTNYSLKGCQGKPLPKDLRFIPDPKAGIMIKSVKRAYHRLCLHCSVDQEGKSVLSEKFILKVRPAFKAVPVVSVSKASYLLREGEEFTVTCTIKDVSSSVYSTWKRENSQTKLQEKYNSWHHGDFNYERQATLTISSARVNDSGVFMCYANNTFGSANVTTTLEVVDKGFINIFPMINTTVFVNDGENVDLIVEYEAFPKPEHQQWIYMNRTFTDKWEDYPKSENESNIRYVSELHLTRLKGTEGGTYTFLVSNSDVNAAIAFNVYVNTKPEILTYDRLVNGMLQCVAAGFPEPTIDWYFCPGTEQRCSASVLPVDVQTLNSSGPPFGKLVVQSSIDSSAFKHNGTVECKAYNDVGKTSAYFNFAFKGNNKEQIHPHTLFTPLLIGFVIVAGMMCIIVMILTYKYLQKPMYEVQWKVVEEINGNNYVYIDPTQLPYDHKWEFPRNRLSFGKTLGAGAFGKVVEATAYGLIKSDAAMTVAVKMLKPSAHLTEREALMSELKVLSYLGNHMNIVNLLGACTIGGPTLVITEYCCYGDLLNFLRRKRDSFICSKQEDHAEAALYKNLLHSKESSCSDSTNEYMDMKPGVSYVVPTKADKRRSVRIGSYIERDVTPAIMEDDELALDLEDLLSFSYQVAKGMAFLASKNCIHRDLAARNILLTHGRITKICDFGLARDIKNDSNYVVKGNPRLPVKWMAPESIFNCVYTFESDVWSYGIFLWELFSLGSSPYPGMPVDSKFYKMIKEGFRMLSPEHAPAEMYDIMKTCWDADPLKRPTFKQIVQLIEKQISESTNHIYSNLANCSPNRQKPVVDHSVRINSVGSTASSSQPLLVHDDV
Source text: as §1

Compound `COc1cc2c(cn1)N(C)C(=O)[C@@H](NC(=O)c1nc3n(n1)[C@H](c1ccccc1)CC3)CC2` [GNE684, (S)-N-((S)-7-methoxy-1-methyl-2-oxo-2,3,4,5-tetrahydro-1H-pyrido[3,4-b]azepin-3-yl)-5-phenyl-6,7-dihydro-5H-pyrrolo[1,2-b][1,2,4]triazole-2-carboxamide] has a remaining binding at 10 µM (RET(V804L)) of 91%, a remaining binding at 10 µM (PRKR) of 100% and a remaining binding at 10 µM [1] of 69%. The remaining binding at 10 µM [2] was 100%, the remaining binding at 10 µM (PKNB(M.tuberculosis)) was 96% and the remaining binding at 10 µM (LRRK2(G2019S)) was 97%. It also gave a remaining binding at 10 µM (PIM3) of 100%, a remaining binding at 10 µM [3] of 81% and a remaining binding at 10 µM (CAMK4) of 86%. It also gave a remaining binding at 10 µM (PCTK3) of 94%, a remaining binding at 10 µM (ULK2) of 100% and a remaining binding at 10 µM (PIP5K1C) of 100%. The remaining binding at 10 µM (PIP5K2C) was 76%, the remaining binding at 10 µM (FLT3(K663Q)) was 100% and the remaining binding at 10 µM (CIT) was 100%. The remaining binding at 10 µM [4] was 85%, the remaining binding at 10 µM (CDK5) was 93% and the remaining binding at 10 µM (ACVR1) was 100%. It also gave a remaining binding at 10 µM (CSNK2A1) of 93%, a remaining binding at 10 µM (TSSK1B) of 95% and a remaining binding at 10 µM (KIT(A829P)) of 100%.

Source: publication PMC7206119, “RIP1 inhibition blocks inflammatory diseases but not tumor growth or metastases” (Cell Death and Differentiation, 2019)
